This is an account of results in patent US7030143B2, “Heterocyclic compounds” (Nippon Shinyaku Co., Ltd., priority 2000, dated 2006).

Usually melting point stands for the temperature, or range, at which the solid turns liquid. Compound `CC(C)(OCCCCCCCCc1coc(-c2ccccc2)n1)C(=O)O` [Example 45, 2-Methyl-2-[8-(2-phenyloxazol-4-yl)octyloxy]propionic acid] returned a melting point of 59 to 61 °C.

For `CC(C)(OCCCCCCCc1coc(-c2ccc(Cl)cc2)n1)C(=O)O` [Example 46, 2-{7-[2-(4-Chlorophenyl)oxazol-4-yl]heptyloxy}-2-methylpropionic acid], the melting point lay in the range of 91 to 93 °C. `CC(C)(OCCCCCCCc1coc(-c2ccc(F)cc2)n1)C(=O)O` [Example 47, 2-{7-[2-(4-Fluorophenyl)oxazol-4-yl]heptyloxy}-2-methylpropionic acid] registered a melting point of 67 to 74 °C. With `CC(C)(OCCCCCCc1coc(-c2ccc(F)cc2)n1)C(=O)O` [Example 48, 2-{6-[2-(4-Fluorophenyl)oxazol-4-yl]hexyloxy}-2-methylpropionic acid], the melting point lay within 80 to 83 °C.

`CC(C)(OCCCCCCCc1csc(-c2ccccc2)n1)C(=O)O` [Example 49, 2-Methyl-2-[7-(2-phenylthiazol-4-yl)heptyloxy]propionic acid] returned a melting point of 71 to 72 °C. `CC(C)(OCCCCCCCCc1csc(-c2ccccc2)n1)C(=O)O` [Example 50, 2-Methyl-2-[8-(2-phenylthiazol-4-yl)octyloxy]propionic acid] showed a melting point of 64 to 70 °C.

In turn, `Cc1oc(-c2ccncc2)nc1CCCCCCOC(C)(C)C(=O)O` [Example 51, 2-Methyl-2-{6-[5-methyl-2-(4-pyridyl)oxazol-4-yl]hexyloxy}propionic acid] registered a melting point of 91 to 93 °C. On to `Cc1ccc(-c2nc(CCCCCCOC(C)(C)C#N)c(C)o2)cc1` [Example 85, 2-Methyl-2-{6-[5-methyl-2-(p-tolyl)oxazol-4-yl]-hexyloxy}propiononitrile], for which the melting point came to 36 °C. For the compound `Cc1ccc(-c2nc(CCCCCCOC(C)(C)c3nnn[nH]3)c(C)o2)cc1` [Example 86, 5-[1-Methyl-1-{6-[5-methyl-2-(p-tolyl)oxazol-4-yl]hexyloxy}ethyl]tetrazole], the melting point amounted to 87 °C.
